# Laboratory results as given in US4448763A, “Alteration of gallium biodistribution using indium complexes for enhanced early imaging” (priority 1980, dated 1984).
# Assays:
# [1] = Imaging of 67Ga distribution in non-tumored rats, clearing agent six hours post dosing; assay type: in vivo, male Sprague Dawley rats
# Excerpt: Initial studies used non-tumored male Sprague Dawley rats weighing between 250 and 300 grams. […] In all imaging studies, the animals were anesthetized by intraperitoneal injection of urethane (1 gm/Kg), and the left external jugular vein cannulated as a dosing site. The animals were then positioned under the detection of the γ-camera (Union Carbide; CLEON 720 Large Field Gamma Camera coupled with a CLEON 110 Image Processor) and images were obtained periodically.
# [2] = Blood clearance of 67Ga (external blood loop), clearing agent given six hours after radiopharmaceutical; assay type: in vivo, male Sprague Dawley rats; parameters: % Increase in Blood Activity / Net Decrease in blood activity / % Decrease in Blood Activity: concentration or dose not given beside the values; details: for % Decrease in Blood Activity: 67Ga blood activity, clearing agent six hours after injection of radiopharmaceutical; for Net Decrease in blood activity / % Increase in Blood Activity / change in blood activity (in words): clearing agent six hours after radiopharmaceutical; for % Increase in Blood Activity: rise following the initial drop
# [3] = versus gallium alone; cited from earlier work
# induced abscesses = details: rabbits bearing induced abscesses; cited from earlier work
# [4] = cited from earlier work
# [5] = in vivo; cited from earlier work
# [6] = cited from earlier work; remark: listed apart in the source
# [7] = Blood activity-time curve of carrier-free gallium-67 citrate, no clearing agent; assay type: in vivo, normal Sprague Dawley rat; details: single i.v.
# Excerpt: In this study, an external blood-loop technique (Int J of Appl Radiat Isot 29: 189-190, 1978) is used to monitor blood activity of the radiopharmaceutical as a function of time. Relative tissue concentrations are monitored by external imaging.
# For blood clearance studies, male Sprague Dawley rats weighing 250-300 grams were used. The animals were anesthetized by peritoneal injection of an aqueous solution of urethan (1 gm/Kg). The right carotid artery and left jugular vein were exposed and an external blood loop (PE-50 tubing; volume.perspectiveto.0.14 ml) was inserted between the vessels. Blood was diverted from the artery, through the loop, and back to the animal via the vein (Int J of Appl Radiat Isot 29: 189-190, 1978). The right external jugular vein was then exposed and cannulated as an injection site. The animal was placed in a lead cradle and the blood loop inserted into the shielded well of a sodium iodide.thallium crystal. The animal received an injection of carrier-free gallium citrate (100-120 μCi) via the jugular cannula. Blood activity within the loop was continuously monitored as a function of time using a Packard Model 9012 Multi-channel Analyzer/Multi-scaler system (Packard Instrument Co., Downersville, Ill.). Six hours post injection, the animal received a second injection containing one of the clearing agents (.perspectiveto.7.2 mmole/Kg). […]
# 5123C hepatoma [8] = experiment: Imaging of 67Ga distribution in tumored rats, clearing agent two hours after radiopharmaceutical; assay type: in vivo, male Buffalo rats
# Method: FIGS. 3A-3C are scans (Union Carbide Cleon model 720 large field gamma camera) of Buffalo rats bearing implanted 5123C hepatomas.
# At this point, the rat on the left received carrier gallium citrate (3.3 mg/Kg) and the rat on the right received indium citrate (2.1 mg/Kg).
# Initial studies used non-tumored male Sprague Dawley rats weighing between 250 and 300 grams. Subsequent studies in tumored rats used male Buffalo rats bearing a 5123C hepatoma (The tumor line was initiated from donor animals donated by Drs. R. L. Hayes and B. Byrd of the Oak Ridge Associated Universities). In all imaging studies, the animals were anesthetized by intraperitoneal injection of urethane (1 gm/Kg), and the left external jugular vein cannulated as a dosing site. The animals were then positioned under the detection of the γ-camera (Union Carbide; CLEON 720 Large Field Gamma Camera coupled with a CLEON 110 Image Processor) and images were obtained periodically.
# When the clearing agent was given two hours post radiopharmaceutical dosing, there were significant changes in gallium-67 distribution (FIG. 3). […] The results from use of indium citrate were somewhat more dramatic in that the activity is greatly diminished throughout the soft tissue regions. […] The most significant distributional change, however, is the obvious increase in tumor activity. […] To test this hypothesis, indium citrate was given with gallium-67 citrate as a single solution. […] Twenty minutes after the mixed dose is given, there is little activity outside the kidneys, bladder, tumor and bone. After two hours, there is essentially no activity in the animal other than in the above mentioned regions.
# [9] = Blood clearance of 67Ga (external blood loop), clearing agent given two hours after radiopharmaceutical; assay type: in vivo, male Sprague Dawley rats
# Method: Relative tissue concentrations are monitored by external imaging.
# For blood clearance studies, male Sprague Dawley rats weighing 250-300 grams were used. The animals were anesthetized by peritoneal injection of an aqueous solution of urethan (1 gm/Kg). The right carotid artery and left jugular vein were exposed and an external blood loop (PE-50 tubing; volume.perspectiveto.0.14 ml) was inserted between the vessels. […] The right external jugular vein was then exposed and cannulated as an injection site. The animal was placed in a lead cradle and the blood loop inserted into the shielded well of a sodium iodide.thallium crystal. The animal received an injection of carrier-free gallium citrate (100-120 μCi) via the jugular cannula. […] Six hours post injection, the animal received a second injection containing one of the clearing agents (.perspectiveto.7.2 mmole/Kg). In subsequent experiments, clearing agents were administered two hours after or simultaneously with the radioactive dose.
# 5123C hepatoma [10] = experiment: Imaging of 67Ga distribution in tumored rats, clearing agent six hours after radiopharmaceutical
# [11] = relatively large doses; cited from earlier work
# [12] = clearing agent two hours post radiopharmaceutical, gallium citrate 3 mg/Kg, […] 2.1 mg/Kg
# [13] = clearing agent two hours after radiopharmaceutical
molecule,measurement,setting,value
"CC(O)C(=O)[O][Al]([O]C(=O)C(C)O)[O]C(=O)C(C)O (centres unmarked) [Aluminum, aluminum lactate]",redistribution of radioactivity (imaging),[1],no significant redistribution of the radioactivity
same,% Decrease in Blood Activity,[2],9%
same,Net Decrease in blood activity,[2],6%
same,% Increase in Blood Activity,[2],3%
"CC(=O)[O-].CC(=O)[O-].CC(=O)[O-].[Tl+3] [Thallium, thallium triacetate]",redistribution of radioactivity (imaging),[1],no significant redistribution of the radioactivity
same,% Decrease in Blood Activity,[2],0%
same,Net Decrease in blood activity,[2],0%
same,change in blood activity (in words),[2],no change in blood activity
same,% Increase in Blood Activity,[2],0%
CC(=O)N(O)CCCCCNC(=O)CCC(=O)N(O)CCCCCNC(=O)CCC(=O)N(O)CCCCCN [desferoxamine],renal elimination rate of gallium desferoxamine complex,[3],rate greater than that observed for gallium alone
iron dextran,clearing of gallium and abscess uptake,induced abscesses,clearing of gallium with enhanced abscess uptake of gallium
O=C([O-])CC(O)(CC(=O)[O-])C(=O)[O-].[Sc+3] [Scandium citrate],tumor to blood and tumor to tissue ratios,[4]; gallium-67 and scandium citrates injected simultaneously,extremely high tumor to blood and tumor to tissue ratios
same,effect upon gallium binding in tumors,[4]; in vivo,little or no effect upon gallium binding in tumors
same,hemolytic anemia,[5],severe hemolytic anemia
O=C([O-])CC(O)(CC(=O)[O-])C(=O)[O-].[67Ga+3] [gallium-67 citrate],time of maximum gallium activity in tumors,[6]; after intravenous administration,eighteen
same,plasma / blood and soft tissue protein binding,[6]; given in very low doses,extensively bound
same,clearing from blood and soft tissue binding sites,[6]; in vivo,slow process
same,radiation dose,[6]; prolonged retention of 67Ga in the body,relatively high radiation dose
same,t1/2 of very rapid component of blood curve,[7],12 s
same,time to completion of rapid distribution process,[7]; after dosing,four to six
"O=C([O-])CC(O)(CC(=O)[O-])C(=O)[O-].[Ga+3] [Gallium, gallium citrate]",redistribution of radioactivity (imaging),[1],shifted the radioactivity out of the blood/soft tissue regions and into the kidneys and the bladder
same,clearing of soft tissue / abdominal activity (imaging),5123C hepatoma [8]; [12],some clearing in the upper abdomen and in regions of the lower abdomen
same,tumor activity (imaging),5123C hepatoma [8]; [12],little loss of activity from the tumor region
same,"activity bound within tumors (imaging, summary)","5123C hepatoma [8]; moderate doses of carrier gallium, […] two hours after radiopharmaceutical",obviously affected
same,blood activity cleared,[9]; [13],78%
same,subsequent rise in blood activity (in words),[9]; [13],characteristic rise in activity
same,net clearance of blood activity,"[9]; two hours after radiopharmaceutical, gallium 3.3 mg/Kg",70%
same,% Decrease in Blood Activity,[2],40%
same,% Decrease in Blood Activity,[2]; listed as non-radioactive gallium,approximately 40%
same,Net Decrease in blood activity,[2],25%
same,change in blood activity (in words),[2],decrease very rapidly
same,blood activity reduction vs no clearing agent,"[2]; eight hours post radiopharmaceutical dosing, gallium 3.3 mg/Kg at six hours",approximately 25%
same,% Increase in Blood Activity,[2],15%
same,redistribution of radioactivity outside tumor (imaging),5123C hepatoma [10]; gallium citrate 3 mg/Kg,less dramatic effect
same,loss of activity from the tumor (imaging),"5123C hepatoma [10]; gallium citrate 3 mg/Kg, compared with high dose",much less
same,redistribution of radioactivity outside tumor (imaging),5123C hepatoma [10]; gallium citrate 15 mg/Kg,obvious redistributions of radioactivity
same,tumor activity (imaging),5123C hepatoma [10]; gallium citrate 15 mg/Kg,tumor activity was observed to decrease
same,effect on blood and tumor activity,[11],decrease blood activity without significantly reducing tumor activity
